In patent US20170246227A1, “COMBINATION COMPRISING SPIRULINA AND PALMITOYLETHANOLAMIDE AND/OR SALTS OR PHARMACEUTICALLY ACCEPTABLE DERIVATIVES THEREOF AND THEIR FORMULATIONS, FOR USE IN THE PREVENTION AND/OR IN THE TREATMENT OF HYPERACTIVATED TISSUE CONDITIONS” (priority 2014, published 2017):

How the values were obtained:
Format in all cases: in vivo, human
[1] = test system: diabetic patients with altered renal functions; experiment: Clinical study in altered renal functions in diabetics: creatinine value at beginning and end
Description: A clinical study was performed to test the synergistic effect of the combination of spirulina (used as dry extract) and PEA in the treatment of altered renal functions, preferably in diabetics.
In the study, three patients were treated, comprising both men and women who suffered from diabetes. All patients presented altered renal functions, evidenced by the creatinine value, i.e. a creatinine value of over 4 mg/dl (normal values range from 0.7 to 1.3 mg/dl). All the patients were undergoing specific treatments (conventional drugs, such as Decadurabolin, etc.) which, nevertheless, were unable to control the renal dysfunction. The patients' creatinine values were tested, both at the beginning and the end of the clinical study assessment.
In accordance with the present invention, the patients were treated according to the following schema: • the first patient was treated with a tablet comprising 650 mg of PEA, administered four times a day, for a daily total of 2,600 mg of PEA, for a duration of 5 days; next, the same patient was treated with one tablet, comprising 650 mg of PEA, administered twice a day, for a daily total of 1,300 mg of PEA, for a duration of 30 days; • the second patient was treated with a tablet comprising 350 mg of spirulina, administered four times a day, for a daily total of 1,400 mg of spirulina, for a duration of 5 days; next, the same patient was treated with one tablet, comprising 350 mg of spirulina, administered twice a day, for a daily total of 700 mg of spirulina, for a duration of 30 days; • next, the third patient was treated with one tablet, comprising 350 mg of spirulina and 650 mg of PEA, administered four times a day, for a daily total of 1,400 mg of spirulina combined with 2,600 mg of PEA, for a duration of 5 days; next, the same patient was treated with one tablet, comprising 350 mg of spirulina and 650 mg of PEA, administered twice a day, for a daily total of 700 mg of spirulina combined with 1,300 mg of PEA, for a duration of 30 days.

[2] = Fasting glycaemia at beginning and end of the diabetic peripheral neuropathy study; conditions: 1 patient each, 35 days, on oral hypoglycaemic agents; combination 35% spirulina, 65% PEA
Description: In the study, three patients were treated, comprising both men and women who suffered from peripheral neuropathy of diabetic origin. All the patients presented the classic symptoms of peripheral neuropathy, i.e. the classic symptoms consisting of paraesthesias, the sensation of ‘walking on cotton wool’, insensitivity to heat and/or cold, etc., and all the patients were undergoing specific treatments to control glycaemic values, in particular oral hypoglycaemic agents. The patients' glycaemia was tested, both at the beginning and the end of the study, to see if taking the product influenced glycaemic control in any way. […]

[3] = test system: patients suffering from age-related macular degeneration; experiment: Clinical study in senile macular degeneration, Amsler test before and after treatment; conditions: 1 patient each, tablet 4x/day for 10 days then 2x/day for 30 days; PEA 450 mg and/or spirulina 550 mg per tablet; combination 55% spirulina, 45% PEA
Description: A clinical study was performed to test the synergistic effect of the combination of spirulina (used as dry extract) and PEA in the treatment of senile macular degeneration.
In the study, three patients were treated, comprising both men and women, who were suffering from age-related macular degeneration with the presence of macular drusen, i.e. localised deposits between the retinal pigment epithelium (RPE) and the Bruch membrane, together with geographic atrophy, characterised by RPE cell death and atrophy of the overlying photoreceptors.
All the patients underwent an assessment with the Amsler test, prior to administration of the combination of spirulina and PEA. All three patients presented macular degeneration with distortion (metamorphopsia) or line breaks with an average degree of macular degeneration. […]

[4] = test system: patients with praecordial pain of cardiac origin (angina pectoris); experiment: Clinical study in angina pectoris (chest pain), stress ECG; conditions: 1 patient each, PEA 300 mg and/or spirulina 700 mg per tablet, combination 70% spirulina, 30% PEA
Description: A clinical study was performed to test the synergistic effect of the combination of spirulina (used as dry extract) and PEA in the treatment of angina pectoris (chest pain).
In the study, three patients were treated, comprising both men and women who suffered from praecordial pain of cardiac origin. Upon undergoing a stress ECG, all the patients presented anginal pain during the stress and all were undergoing specific treatments (antihypertensives, beta blockers), which—nevertheless—were unable to fully control the aforesaid symptoms. […]

[5] = test system: patients with peripheral neuropathy of diabetic origin; experiment: Clinical study in diabetic peripheral neuropathy: nerve conduction by neurological tuning fork, biothesiometer and Achilles reflex; conditions: 1 patient each, combination 35% spirulina, 65% PEA
Description: A clinical study was performed to test the synergistic effect of the combination of spirulina (used as dry extract) and PEA in the treatment of peripheral neuropathy in diabetics.
In the study, three patients were treated, comprising both men and women who suffered from peripheral neuropathy of diabetic origin. All the patients presented the classic symptoms of peripheral neuropathy, i.e. the classic symptoms consisting of paraesthesias, the sensation of ‘walking on cotton wool’, insensitivity to heat and/or cold, etc., and all the patients were undergoing specific treatments to control glycaemic values, in particular oral hypoglycaemic agents. The patients' glycaemia was tested, both at the beginning and the end of the study, to see if taking the product influenced glycaemic control in any way. All the patients had mean fasting glycaemia values of approximately 140 to 165 mg/dl. […]

[6] = test system: patients suffering from tinnitus; experiment: Clinical study of spirulina, PEA and their combination in the treatment of tinnitus; conditions: 2 patients per group, oral tablets 2x2/day for 5 days then 1x2/day for 10 days; PEA 350 mg and/or spirulina 650 mg per tablet; combination 65% spirulina, 35% PEA
Description: A clinical study was performed to test the synergistic effect of the combination of spirulina (used as dry extract) and palmitoylethanolamide (PEA) in the treatment of tinnitus.
In the study, six patients were treated, comprising both men and women, with a mean age of 49.6 years (person, person, person, person, person, […] women), who had been suffering from tinnitus for at least one year. […]
The improvements regarding the tinnitus were declared by patients, while the improvement in hearing was measured via an audiometric test, carried out before and after administration of the combination in the invention. […]

## CCCCCCCCCCCCCCCC(=O)NCCO [PEA, Palmitoylethanolamide]
[1]; 1 diabetic patient each, tablet 4x/day for 5 days then 2x/day for 30 days, PEA 650 mg and/or spirulina 350 mg per tablet, combination 35% spirulina, 65% PEA
  renal functions: no improvement in renal functions
[1]; after 35 days, normal values 0.7 to 1.3 mg/dl, combination 35% spirulina, 65% PEA
  creatinine value at the end of the treatment: 4.4 mg/dL
[1]; baseline of the treated patient, normal values 0.7 to 1.3 mg/dl
  creatinine value at the beginning of the treatment: 4.3 mg/dL
[2]
  glycaemic profile: without any influence on the glycaemic profile
[3]
  Amsler test result after treatment: slight improvement in the Amsler test result
[4]; 45 days
  praecordial pain of cardiac origin when stress was increased during the stress ECG: presented praecordial pain of cardiac origin
[4]; tablet 4x/day for 15 days then 2x/day for 30 days, added to treatments already underway
  change in condition / capacity to endure the stress ECG versus before administration: no significant changes in condition
[5]; 35 days
  nerve conduction assessed with tuning fork and biothesiometer: slight response to the biothesiometry test
[5]; tablet 4x/day for 5 days then 2x/day for 30 days, PEA 650 mg and/or spirulina 350 mg per tablet
  neuropathic symptoms / condition: slight improvement in the neuropathic symptoms
[6]
  change in tinnitus perceived (declared by patients): neither the two patients treated with PEA, nor the two patients treated with spirulina showed variations in the tinnitus
